Reference: patent US20260218267A1, “METHODS AND COMPOSITIONS FOR PRODUCTION AND PURIFICATION OF PEPTIDES” (priority 2023, published 2026)

B1: Onconase: RNAse first identified in Rana pipiens, about 104 amino acids, used as insoluble carrier polypeptide (protein, UniProt P22069 1-104, looked up)
Protein P-30: QDWLTFQKKHITNTRDVDCDNIMSTNLFHCKDKNTFIYSRPEPVKAICKGIIASKNVLTTSEFYLSDCNVTSRPCKYKLKKSTNKFCVTCENQAPVHFVGVGSC

Columns and labels:
[1] = tested on: grey mold (Botrytis cinerea); assay: Disease control assay, tomato plants infected with grey mold; type: in vivo; settings: peptide sprayed 24 h post infection at 0.1 g/l or 0.3 g/l, FIG. 17
Procedure: The peptides were sprayed 24 h post infection at concentration of 0.1 g/l or 0.3 g/l.
Peptide production was performed using the chaotropic agent-free protocol described in Example 8.
A synthetic peptide (MP18913), which mimics the concatemeric sequence with an N-terminus proline (P) and C-terminus aspartate (D), was chemically synthetized and used as a control treatment.
Peptide activity was assessed by a disease control assay using tomato plants infected with grey mold (Botrytis cinerea). Peptides were sprayed 24 h post infection at concentration of 0.1 g/l or 0.3 g/l. Disease control percentage was determined based on convex hull recovery, with a total of 7 plants examined (n=7) upon infection with Botrytis spores at 250 spores/ml.

[2] = general statement on onconase; cited from earlier work

Molecule | Control of tomato grey mold infection, comparison in words [1] | pI [2]
MP18913 (PKKEEMSYMKRD) | as effective, or slightly more effective, than the chemically synthetized version | –
B1 | – | higher than 9.5
